Here are results for one compound from article PMC11293336 (Cell Reports Medicine, 2024).

Data set [1] relates to recurrent high-grade gliomas. The note with it: IV; cited from earlier work.
The next data set relates to dogs. Nature of the data set: 28-day oral toxicity study in dogs. Format: in vivo, Beagle Dog. Particulars: continuous 28-day schedule.

For the compound `COc1ccc(C[C@@H](C)[C@@H](C)Cc2ccc(OC)c(OC)c2)cc1OC` [terameprocol, meso-tetra-O-methyl nordihydroguaiaretic acid], the objective responses result in data set [1] is on record as “no objective responses”. Further, in the data set on dogs, the tolerability result was “well tolerated”.
